One test concerns the target T1, ovine COX-1 (Ovis aries, UniProt P05979).
T1 sequence (P05979 25-600): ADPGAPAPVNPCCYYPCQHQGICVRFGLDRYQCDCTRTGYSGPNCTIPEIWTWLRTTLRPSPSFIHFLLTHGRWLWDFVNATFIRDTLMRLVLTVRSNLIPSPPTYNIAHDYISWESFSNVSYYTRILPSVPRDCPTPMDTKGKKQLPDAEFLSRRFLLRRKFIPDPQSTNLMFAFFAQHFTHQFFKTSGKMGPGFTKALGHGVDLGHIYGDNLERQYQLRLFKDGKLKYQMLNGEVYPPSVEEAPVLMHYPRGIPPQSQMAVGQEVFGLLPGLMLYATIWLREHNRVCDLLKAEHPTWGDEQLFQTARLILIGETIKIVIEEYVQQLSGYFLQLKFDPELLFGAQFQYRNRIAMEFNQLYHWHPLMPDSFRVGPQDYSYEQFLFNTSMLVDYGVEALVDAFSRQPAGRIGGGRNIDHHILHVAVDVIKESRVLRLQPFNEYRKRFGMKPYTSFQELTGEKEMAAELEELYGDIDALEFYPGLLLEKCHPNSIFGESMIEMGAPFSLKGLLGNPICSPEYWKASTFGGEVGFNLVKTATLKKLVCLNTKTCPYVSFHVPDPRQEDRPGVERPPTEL
Kind of test: In vitro COX-1 inhibitory assay. The format is biochemical.

The next test addresses T2, human recombinant COX-2 (Homo sapiens, UniProt P35354).
T2 sequence (P35354 18-604): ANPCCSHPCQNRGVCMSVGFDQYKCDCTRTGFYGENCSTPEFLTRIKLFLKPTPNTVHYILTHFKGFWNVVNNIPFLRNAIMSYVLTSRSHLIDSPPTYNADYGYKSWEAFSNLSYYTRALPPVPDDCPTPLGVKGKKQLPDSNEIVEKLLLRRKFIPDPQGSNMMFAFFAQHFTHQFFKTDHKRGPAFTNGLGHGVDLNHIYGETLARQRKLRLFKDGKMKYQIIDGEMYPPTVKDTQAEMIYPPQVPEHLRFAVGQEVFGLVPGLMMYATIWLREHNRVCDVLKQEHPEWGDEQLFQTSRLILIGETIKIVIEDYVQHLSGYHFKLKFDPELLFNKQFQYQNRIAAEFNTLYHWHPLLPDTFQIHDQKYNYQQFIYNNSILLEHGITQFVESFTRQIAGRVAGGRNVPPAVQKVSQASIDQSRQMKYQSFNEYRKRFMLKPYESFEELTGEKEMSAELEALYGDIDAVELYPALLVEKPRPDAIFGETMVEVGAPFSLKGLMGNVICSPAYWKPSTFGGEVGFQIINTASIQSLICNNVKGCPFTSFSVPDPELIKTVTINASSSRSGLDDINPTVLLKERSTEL
Kind of test: In vitro COX-2 inhibitory assay. The conditions noted are these: for Enhancement of anti-COX-2 activity by p-Cl on benzylidine: compared with unsubstituted compounds 4b, 4c, 4g, 4h respectively. The format is biochemical.

Another test concerns the target T3, soybean 15-LOX (Glycine max, UniProt P08170).
T3 sequence (P08170 1-839): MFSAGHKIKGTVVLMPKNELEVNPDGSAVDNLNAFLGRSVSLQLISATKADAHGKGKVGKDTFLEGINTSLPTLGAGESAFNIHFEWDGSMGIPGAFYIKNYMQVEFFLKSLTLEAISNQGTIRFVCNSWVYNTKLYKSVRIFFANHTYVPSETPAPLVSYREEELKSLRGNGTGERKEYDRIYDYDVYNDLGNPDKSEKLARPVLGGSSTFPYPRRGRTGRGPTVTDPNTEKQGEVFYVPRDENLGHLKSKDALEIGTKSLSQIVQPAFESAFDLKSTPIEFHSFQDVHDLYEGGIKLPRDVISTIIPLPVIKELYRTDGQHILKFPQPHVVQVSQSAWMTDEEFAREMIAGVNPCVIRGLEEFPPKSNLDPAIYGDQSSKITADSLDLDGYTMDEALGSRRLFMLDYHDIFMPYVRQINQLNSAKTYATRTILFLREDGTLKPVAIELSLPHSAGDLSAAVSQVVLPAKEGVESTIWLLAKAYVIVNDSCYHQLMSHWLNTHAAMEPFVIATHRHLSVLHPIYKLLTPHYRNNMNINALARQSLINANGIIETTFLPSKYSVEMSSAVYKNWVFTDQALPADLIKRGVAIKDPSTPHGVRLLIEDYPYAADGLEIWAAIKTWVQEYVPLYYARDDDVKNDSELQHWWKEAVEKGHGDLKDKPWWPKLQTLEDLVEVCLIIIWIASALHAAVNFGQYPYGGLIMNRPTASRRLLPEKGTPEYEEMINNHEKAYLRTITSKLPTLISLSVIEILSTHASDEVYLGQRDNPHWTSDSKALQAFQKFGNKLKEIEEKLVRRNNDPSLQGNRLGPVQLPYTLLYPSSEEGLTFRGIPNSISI
Kind of test: In vitro 15-LOX inhibitory assay. The format is biochemical.

The test system of test [1] is LPS-induced TNF-α production in RAW 264.7 cells. The conditions noted are these: for TNF-α level: cells treated with 25 μM compound, LPS-activated RAW 264.7.
Test [2] concerns LPS-induced IL-6 production in RAW 264.7 cells. As to conditions: for IL-6 level: cells treated with 25 μM compound, LPS-activated RAW 264.7.
Test [3] has as its system LPS-induced ROS production in RAW 264.7 cells. In words: cells. As to conditions: Mus musculus, RAW264.7, 18 h, read-out: ROS (IC50).

“And” between values parts separate entries of the source, which are not always exact repeats. Equal entries are not always repeated. Where two headings read alike, the source gives them in different places.

As for `Cc1ccc(NC(=O)CSC2=N/C(=C\c3ccc(Cl)cc3)C(=O)N2c2ccccc2)cc1` [Compound 4n, (Z)-2-{[4-(4-Chlorobenzylidene)-5-oxo-1-phenyl-4,5-dihydro-1H-imidazol-2-yl]thio}-N-(4-tolyl)acetamide], the IC50 is 9.45 ± 1.33 µM against ovine COX-1, 0.12 ± 0.053 µM at human recombinant COX-2, 3.13 ± 1.49 µM against soybean 15-LOX and 41 ± 1.39 µM in test [3]. Besides, at human recombinant COX-2, the “SI (Selectivity index = COX-1 IC50/COX-2 IC50)” value was 79.96. This compound registered a TNF-α level in test [1] of 37.28 ± 14.95 pg/mL. The compound further showed an IL-6 level in test [2] of 36.56 ± 14.95 pg/mL.
On to `O=C(CSC1=N/C(=C\c2ccccc2)C(=O)N1c1ccccc1)NCc1ccccc1` [Compound 4i, (Z)-N-Benzyl-2-[(4-benzylidene-5-oxo-1-phenyl-4,5-dihydro-1H-imidazol-2-yl)thio]acetamide], for which the IC50 against ovine COX-1 was found to be 10.6 ± 1.62 µM; at human recombinant COX-2, 0.09 ± 0.041 µM; against soybean 15-LOX, 2.82 ± 1.27 µM; in test [3] it was 21.8 ± 1.26 µM. Moreover, the “SI (Selectivity index = COX-1 IC50/COX-2 IC50)” value on human recombinant COX-2 was 121.60. Besides, the TNF-α level in test [1] is 46.98 ± 25.83 pg/mL. The IL-6 level in test [2] was 21.00 pg/mL and 21.00 ± 9.39 pg/mL.
For the compound `COc1cc(NC(=O)CSC2=N/C(=C\c3ccc(Cl)cc3)C(=O)N2c2ccccc2)cc(OC)c1OC` [Compound 4p, (Z)-2-{[4-(4-Chlorobenzylidene)-5-oxo-1-phenyl-4,5-dihydro-1H-imidazol-2-yl]thio}-N-(3,4,5-trimethoxyphenyl)acetamide], the 50% inhibitory concentration (IC50) against ovine COX-1 was determined as 12.8 ± 1.83 µM; on human recombinant COX-2, 0.08 ± 0.037 µM; against soybean 15-LOX, 2.69 ± 1.29 µM; in test [3], 25.4 ± 1.26 µM. Besides, the “SI (Selectivity index = COX-1 IC50/COX-2 IC50)” value on human recombinant COX-2 is 152.23 and 152.33. The “Enhancement of anti-COX-2 activity by p-Cl on benzylidine” value at human recombinant COX-2 is reported as 1.75 folds. The compound also registered a TNF-α level in test [1] of 31.42 ± 3.70 pg/mL. Moreover, in test [2], the IL-6 level was 30.70 pg/mL and 30.70 ± 3.70 pg/mL.
Take `O=C(CSC1=N/C(=C\c2ccc(Cl)cc2)C(=O)N1c1ccccc1)Nc1cccc(C(F)(F)F)c1` [Compound 4q, (Z)-2-{[4-(4-Chlorobenzylidene)-5-oxo-1-phenyl-4,5-dihydro-1H-imidazol-2-yl]thio}-N-[3-(trifluoromethyl)phenyl]acetamide]: the IC50 came to 10.1 ± 1.61 µM at ovine COX-1, 0.09 ± 0.04 µM on human recombinant COX-2, 3.99 ± 1.9 µM on soybean 15-LOX and 56.2 ± 1.26 µM in test [3]. The “SI (Selectivity index = COX-1 IC50/COX-2 IC50)” value at human recombinant COX-2 is listed as 111.90. For the same compound, on human recombinant COX-2, the “Enhancement of anti-COX-2 activity by p-Cl on benzylidine” value was found to be 3.1 folds. In addition, the TNF-α level in test [1] was 5.26 pg/mL and 5.26 ± 0.61 pg/mL. The “TNF-α inhibitory activity, fold more than unsubstituted benzylidine 4h” value in test [1] (vs 4h) came to 4.6 fold. For the same compound, the “TNF-α inhibition, fold more potent than celecoxib” value in test [1] (vs celecoxib) was ~ 5 fold. Moreover, the IL-6 level in test [2] was 4.54 ± 0.61 pg/mL. Also, the “IL-6 inhibitory activity, folds more than unsubstituted benzylidine 4h” value in test [2] (vs 4h) is reported as ~ 5 folds.
In the case of `O=C(CSC1=N/C(=C\c2ccc(Cl)cc2)C(=O)N1c1ccccc1)Nc1ccc(Br)cc1` [Compound 4m, (Z)-N-(4-Bromophenyl)-2-[(4-(4-chlorobenzylidene)-5-oxo-1-phenyl-4,5-dihydro-1H-imidazol-2-yl)thio]acetamide], the half-inhibitory concentration (IC50) against ovine COX-1 amounted to 8 ± 1.31 µM; on human recombinant COX-2 it was 0.18 ± 0.082 µM; against soybean 15-LOX it was 4.21 ± 1.53 µM; in test [3], 38.4 ± 1.37 µM. Besides, at human recombinant COX-2, the “SI (Selectivity index = COX-1 IC50/COX-2 IC50)” value is recorded as 44.12. Moreover, the TNF-α level in test [1] is 27.89 pg/mL and 27.89 ± 0.90 pg/mL. Besides, the IL-6 level in test [2] was 27.16 ± 0.9 pg/mL.
`COc1ccc2c(c1)c(CC(=O)O)c(C)n2C(=O)c1ccc(Cl)cc1` [Indomethacin, indomethacin, reference compound]: the concentration for half-maximal inhibition (IC50) in test [3] turned out to be 55 ± 1.26 µM.
In the case of `O=C(CSC1=N/C(=C\c2ccccc2)C(=O)N1c1ccccc1)Nc1ccccc1` [Compound 4a, (Z)-2-[(4-Benzylidene-5-oxo-1-phenyl-4,5-dihydro-1H-imidazol-2-yl)thio]-N-phenylacetamide], the IC50 is 7.83 ± 1.19 µM at ovine COX-1, 0.12 ± 0.06 µM at human recombinant COX-2, 5.71 ± 2.56 µM at soybean 15-LOX and 44.6 ± 1.43 µM in test [3]. Also, on human recombinant COX-2, the “SI (Selectivity index = COX-1 IC50/COX-2 IC50)” value is reported as 62.97. In test [1], this compound came in with a TNF-α level of 57.28 ± 18.75 pg/mL. Moreover, in test [2], the IL-6 level is on record as 37.82 ± 1.06 pg/mL.
Consider `O=C(CSC1=N/C(=C\c2ccc(Cl)cc2)C(=O)N1c1ccccc1)NCc1ccccc1` [Compound 4r, (Z)-N-Benzyl-2-[(4-(4-chlorobenzylidene)-5-oxo-1-phenyl-4,5-dihydro-1H-imidazol-2-yl)thio]acetamide], for which the IC50 on ovine COX-1 was determined as 10.1 ± 1.6 µM; on human recombinant COX-2, 0.13 ± 0.057 µM; at soybean 15-LOX, 2.47 ± 1.14 µM; in test [3], 72.4 ± 1.85 µM. The “SI (Selectivity index = COX-1 IC50/COX-2 IC50)” value on human recombinant COX-2 was found to be 78.00. In test [1], this compound displayed a TNF-α level of 21.02 ± 5.03 pg/mL. Also, in test [2], the IL-6 level turned out to be 20.29 ± 5.03 pg/mL.
Turning to `COc1ccc(NC(=O)CSC2=N/C(=C\c3ccc(Cl)cc3)C(=O)N2c2ccccc2)cc1` [Compound 4o, (Z)-2-{[4-(4-Chlorobenzylidene)-5-oxo-1-phenyl-4,5-dihydro-1H-imidazol-2-yl]thio}-N-(4-methoxyphenyl)acetamide], the IC50 on ovine COX-1 is 11 ± 1.53 µM; at human recombinant COX-2, 0.1 ± 0.044 µM; at soybean 15-LOX it was 3.24 ± 1.46 µM; in test [3] it was 24.2 ± 1.26 µM. Also, at human recombinant COX-2, the “SI (Selectivity index = COX-1 IC50/COX-2 IC50)” value came out at 111.27. In test [1], this compound had a TNF-α level of 29.10 ± 4.54 pg/mL. Besides, in test [2], the IL-6 level is 28.37 pg/mL and 28.37 ± 4.54 pg/mL.
As for `O=C(CSC1=N/C(=C\c2ccc(Cl)cc2)C(=O)N1c1ccccc1)Nc1ccccc1` [Compound 4j, (Z)-2-{[4-(4-Chlorobenzylidene)-5-oxo-1-phenyl-4,5-dihydro-1H-imidazol-2-yl]thio}-N-phenylacetamide], the half-inhibitory concentration (IC50) came to 12 ± 1.67 µM against ovine COX-1, 0.13 ± 0.064 µM on human recombinant COX-2, 4.75 ± 2.31 µM against soybean 15-LOX and 33.4 ± 1.27 µM in test [3]. Besides, on human recombinant COX-2, the “SI (Selectivity index = COX-1 IC50/COX-2 IC50)” value turned out to be 94.97. The compound further had a TNF-α level in test [1] of 50.31 ± 10.22 pg/mL. For the same compound, the IL-6 level in test [2] is 49.59 pg/mL and 49.59 ± 10.22 pg/mL.
On to `Cc1ccc(-c2cc(C(F)(F)F)nn2-c2ccc(S(N)(=O)=O)cc2)cc1` [Celecoxib, celecoxib, reference compound], for which the TNF-α level in test [1] is 25.36 ± 6.364 pg/mL; in test [1] (listed as celecoxib) it was 25.36 pg/mL. Moreover, the figures for the IL-6 level in test [2] and in test [2] (listed as celecoxib) were 24.64 ± 6.36 pg/mL and 24.64 pg/mL, respectively. Also, the IC50 in test [3] was 44.6 ± 1.18 µM.
